Experimental data reported in US11292807B2 (OCEANS LTD., priority 2015, dated 2022).
Read-outs that look alike come from different tables or passages of the source.

Columns and labels:
[1] = system: THP-1 (acute monocytic leukemia); test: CIMA assay, cell viability, THP-1
MDA-MB = test: cells; settings: Homo sapiens, read-out: Average cell viability, MDA-MB
[2] = system: SKOV3 (ovarian adenocarcinoma); test: CIMA assay, cell viability, SKOV3; settings: for Fold change in viability AVG: SKOV
Protocol: (§1) Stock solutions of the extracts were prepared in dimethylsulfoxide (DMSO) at 10 mg/mL and stored in 200 μl aliquots at −20° C. until analysis. This preparation ensured that the DMSO delivered to cells in culture never exceeded 1%.
(§2) Prepared extracts were assessed following chronic exposure conditions in which cells were seeded at 2×10^3 cells/well (96 well-plate) and incubated with test compounds for 72 h. Each compound was evaluated over a range of concentrations (0, 10, 25, 50 or 100 μg/ml). Cell proliferation was initially assessed using a standard colorimetric indicator of metabolic activity (CIMA) assay. In this assay, tetrazole reduction was evaluated as a measure of metabolic function that evaluates mitochondrial activity to determine the extent of cell proliferation within a culture. This assay is based on the reduction of yellow tetrazolium salt to purple formazan by mitochondrial reductases enzyme in viable cells, resulting in a color changed that confers a change in absorbance.

[3] = CIMA assay, cell viability, CCD1079SK; settings: human, Average cell viability, CCD
PC3 [4] = test: CIMA assay, cell viability, PC3
[5] = system: SKOV3 (ovarian adenocarcinoma); settings: human, 72 h
Protocol: as §1, §2

PC3 [6] = settings: human, 72 h, 1 ug/mL
[7] = system: U373 (glioblastoma-astrocytoma); test: CIMA assay, cell viability, U373
[8] = THP-1, 1 ug/mL, listed as 174-13-14-3
[9] = THP-1, 10 ug/mL, listed as 174-13-14-3
[10] = THP-1, 50 ug/mL, listed as 174-13-14-3
[11] = THP-1, 100 ug/mL, listed as 174-13-14-3

Structure (SMILES): CC/C=C\C/C=C\C/C=C\C/C=C\C/C=C\CCCC(=O)OCC(COC1OC(CO)C(O)C(O)C1O)OC(=O)CCCCCCCCCCCCCCC (centres unmarked) [Compound 2, MGDG C20:5/C16:0]
- viability at 1 µg/mL ([1]; Homo sapiens, THP-1, read-out: Average cell viability, THP-1, 1 ug/mL): 102%
- viability at 10 µg/mL ([1]; Homo sapiens, THP-1, read-out: Average cell viability, THP-1, 10 ug/mL): 101%
- viability at 50 µg/mL ([1]; Homo sapiens, THP-1, read-out: Average cell viability, THP-1, 50 ug/mL): 27%
- viability at 100 µg/mL ([1]; Homo sapiens, THP-1, read-out: Average cell viability, THP-1, 100 ug/mL): 17%
- Fold change in viability AVG ([1]; THP-1, 1 ug/mL, listed as 169-14-15-4): 1.16
- Average cell viability [1, 8]: 91%
- Fold change in viability AVG [1, 8]: 1.03
- Fold change in viability AVG ([1]; THP-1, 10 ug/mL, listed as 169-14-15-4): 1.14
- Average cell viability [1, 9]: 88%
- Fold change in viability AVG [1, 9]: 1.00
- Fold change in viability AVG ([1]; THP-1, 50 ug/mL, listed as 169-14-15-4): 0.31
- Average cell viability [1, 10]: 21%
- Fold change in viability AVG [1, 10]: 0.24
- Fold change in viability AVG ([1]; THP-1, 100 ug/mL, listed as 169-14-15-4): 0.19
- Average cell viability [1, 11]: 21%
- Fold change in viability AVG [1, 11]: 0.23
- THP-1 AVG ([1]; THP-1, sample at 1 ug/mL, listed as 169-14-15-4): 1.16
- THP-1 AVG ([1]; THP-1, sample at 1 ug/mL, listed as 174-13-14-3): 1.03
- THP-1 AVG ([1]; THP-1, sample at 10 ug/mL, listed as 169-14-15-4): 1.14
- THP-1 AVG ([1]; THP-1, sample at 10 ug/mL, listed as 174-13-14-3): 1.00
- THP-1 AVG ([1]; THP-1, sample at 50 ug/mL, listed as 169-14-15-4): 0.31
- THP-1 AVG ([1]; THP-1, sample at 50 ug/mL, listed as 174-13-14-3): 0.24
- THP-1 AVG ([1]; THP-1, sample at 100 ug/mL, listed as 169-14-15-4): 0.19
- THP-1 AVG ([1]; THP-1, sample at 100 ug/mL, listed as 174-13-14-3): 0.23
- viability at 1 µg/mL (MDA-MB; 1 ug/mL): 100%
- viability at 10 µg/mL (MDA-MB; 10 ug/mL): 101%
- viability at 100 µg/mL (MDA-MB; 100 ug/mL): 22%
- viability at 50 µg/mL ([2]; Homo sapiens, SK-OV-3, read-out: Average cell viability, SKOV, 50 ug/mL): 67%
- Fold change in viability AVG ([2]; 1 ug/mL, listed as 169-14-15-4): 1.16
- Fold change in viability AVG ([2]; 1 ug/mL, listed as 174-13-14-3): 0.89
- Fold change in viability AVG ([2]; 10 ug/mL, listed as 169-14-15-4): 1.02
- Fold change in viability AVG ([2]; 10 ug/mL, listed as 174-13-14-3): 0.72
- Fold change in viability AVG ([2]; 50 ug/mL, listed as 169-14-15-4): 0.72
- Fold change in viability AVG ([2]; 50 ug/mL, listed as 174-13-14-3): 0.67
- Fold change in viability AVG ([2]; 100 ug/mL, listed as 169-14-15-4): 0.48
- Fold change in viability AVG ([2]; 100 ug/mL, listed as 174-13-14-3): 0.19
- viability at 72 h, 1 ug/mL ([3]; CCD1079SK fibroblast cells (noncancerous, proliferating), 1 ug/mL): 107%
- viability at 72 h, 10 ug/mL ([3]; CCD1079SK fibroblasts (noncancerous, proliferating), 10 ug/mL): 99%
- viability at 72 h, 50 ug/mL ([3]; CCD1079SK fibroblasts (noncancerous, proliferating), 50 ug/mL): 32%
- viability at 72 h, 100 ug/mL ([3]; CCD1079SK fibroblasts (noncancerous, proliferating), 100 ug/mL): 13%
- viability at 1 µg/mL (PC3 [4]; Homo sapiens, PC-3, read-out: Average cell viability, PC3, 1 ug/mL): 107%
- Fold change in viability AVG (PC3 [4]; PC3, 1 ug/mL, listed as 169-14-15-4): 1.11
- Fold change in viability AVG (PC3 [4]; PC3, 1 ug/mL, listed as 174-13-14-3): 1.00
- Fold change in viability AVG (PC3 [4]; PC3, 10 ug/mL, listed as 169-14-15-4): 0.93
- Fold change in viability AVG (PC3 [4]; PC3, 10 ug/mL, listed as 174-13-14-3): 0.71
- Fold change in viability AVG (PC3 [4]; PC3, 50 ug/mL, listed as 169-14-15-4): 0.51
- Fold change in viability AVG (PC3 [4]; PC3, 50 ug/mL, listed as 174-13-14-3): 0.05
- Fold change in viability AVG (PC3 [4]; PC3, 100 ug/mL, listed as 169-14-15-4): 0.15
- Fold change in viability AVG (PC3 [4]; PC3, 100 ug/mL, listed as 174-13-14-3): 0.05
- PC3 AVG (PC3 [4]; PC3, sample at 1 ug/mL, listed as 169-14-15-4): 1.11
- PC3 AVG (PC3 [4]; PC3, sample at 1 ug/mL, listed as 174-13-14-3): 1.00
- PC3 AVG (PC3 [4]; PC3, sample at 10 ug/mL, listed as 169-14-15-4): 0.93
- PC3 AVG (PC3 [4]; PC3, sample at 10 ug/mL, listed as 174-13-14-3): 0.71
- PC3 AVG (PC3 [4]; PC3, sample at 50 ug/mL, listed as 169-14-15-4): 0.51
- PC3 AVG (PC3 [4]; PC3, sample at 50 ug/mL, listed as 174-13-14-3): 0.05
- PC3 AVG (PC3 [4]; PC3, sample at 100 ug/mL, listed as 169-14-15-4): 0.15
- PC3 AVG (PC3 [4]; PC3, sample at 100 ug/mL, listed as 174-13-14-3): 0.05
- Average cell viability ([5]; 10 ug/mL): 94%
- Average cell viability ([5]; 50 ug/mL): 62%
- Average cell viability (PC3 [6]): 97%
- viability at 100 µg/mL ([7]; Homo sapiens, U373 MG, read-out: Average cell viability, U373, 100 ug/mL): 8%
- Average cell viability ([7]; U373, 1 ug/mL, listed as 169-14-15-4): 106%
